Data as given in patent publication US20060040338A1, “Pharmacological profiling of drugs with cell-based assays” (Odyssey Thera, Inc., priority 2004, published 2006).
Entries after “also recorded” stand apart in the source; their conditions may differ.

Experiments:
Type in all cases: cell-based, human
phospho-ERK = phospho-ERK (T202/Y204) immunofluorescence high-content assay; settings: HEK293T cells; for effect on EGF-stimulated ERK phosphorylation: drug 90 min (PD98059 20 micromolar, SB203580 25 micromolar, 17-AAG 5 microM), 100 ng/ml hEGF during last 5 min; for ERK/MAP kinase phosphorylation, agent alone: isoproterenol 2 micromolar or forskolin 1 micromolar 15 min, anisomycin 10 micrograms/ml 10 min, hEGF 100 ng/ml 5 min
Protocol: (§1) We assessed the effects of the above-mentioned compounds on the three pathways and used the results to construct pharmacological profiles for the agents. Specifically we assessed changes in the phosphorylation status of the pathway ‘sentinels’ by constructing high-content, immunofluorescence assays using phospho-specific antibodies targeted to the downstream proteins in the pathways of interest. Human cells (HEK293) were treated with drugs and the phosphorylation status of the three downstream proteins was assessed in the absence or presence of epidermal growth factor (EGF). Cells were then fixed and probed with antisera generated against the phosphorylated forms of CREB (S133), ERK1/2 (phospho T*EY*), or phospho Hsp27 (S78/S82). The ERK1/2 antibodies specifically recognize the MAPK/ERK1 and MAPK/ERK2 protein kinases only when they are phosphorylated on Threonine 202 and Tyrosine 204 in the activation loop. […] Changes in the level and sub-cellular localization of a phosphorylated protein following treatment with a drug would indicate a functional connection between the drug and the pathway of interest.
(§2) Details of the methods used are as follows. HEK293T cells were seeded in black-walled, poly-lysine coated 96-well plates (Greiner) at a density of 30,000/well. After 24 hours, cells in duplicate wells were treated with combinations of different drugs and stimulus as follows: (a) 2 micromolar isoproterenol or 1 micromolar forskolin for 15 min.; (b) 25 micromolar SB203580 or vehicle (DMSO) for 90 minutes and 10 micrograms/ml anisomycin added to the cells during the last 10 min.; (c) 20 microolar PD98059, 25 micromolar SB203580, 5 microM 17-AAG or vehicle alone for 90 min. (d) as for (c), but with 100 ng/ml hEGF added to the cells during the last 5 min of drug treatment. The drugs were purchased from Calbiochem and hEGF was from Roche. Four sets of cells treated as described were prepared. The cells were rinsed once with PBS and fixed with 4% formaldehyde for 10 min. The cells were subsequently permeabilized with 0.25% Triton X-100 in PBS and incubated with 3% BSA for 30 min to block non-specific antibody binding. Each of the 4 sets of identically treated cells were then incubated with rabbit antibodies against phosphorylated CREB (Ser133), Hsp27 (Ser82), or pERK (T202/Y204) (Cell Signaling Technology, Inc.). Control wells were incubated with bovine serum albumin (BSA) in PBS. The cells were rinsed with PBS and incubated with Alexa488 conjugated goat anti-rabbit secondary antibody (Molecular Probes). Cell nuclei were stained with Hoechst33342 (Molecular Probes).
(§3) Images were acquired using Discovery-1 High Content Imaging System (Molecular Devices). Background fluorescence due to nonspecific binding by the secondary antibody was established with the use of cells that were incubated with BSA/PBS and without primary antibodies.
(§4) Raw images in 16-bit grayscale TIFF format were analyzed using ImageJ API/library (http://rsb.info.nih.gov/ij/, NIH, MD). First, images from the fluorescence channels (Hoechst and Alexa 488) were normalized using the ImageJ built-in rolling-ball algorithm [S. R. Sternberg, Biomedical image processing. Computer, 16(1), January 1983]. Next a threshold was established to separate the foreground from background. An iterative algorithm based on Particle Analyzer from ImageJ is applied to the thresholded Hoechst channel image (HI) to obtain the total cell count. The nuclear region of a cell (nuclear mask) is also derived from the thresholded HI. The positive particle mask is generated from the thresholded Alexa 488 image (YI). To calculate the global background (gBG), a histogram was obtained from the un-thresholded Alexa signal and the pixel intensity of the lowest intensity peak was identified as gBG. The Hoechst mask and Alexa mask are overlapped to define the correlated sub-regions of the cell. All means were corrected for the corresponding gBG. […]

phospho-Hsp27 = phospho-Hsp27 immunofluorescence high-content assay; settings: HEK293T cells; for effect on EGF-induced Hsp27 phosphorylation: drug 90 min (PD98059 20 micromolar, SB203580 25 micromolar), 100 ng/ml hEGF during last 5 min; for Hsp27 phosphorylation (p38 pathway), agent alone: anisomycin 10 micrograms/ml 10 min, hEGF 100 ng/ml 5 min
Protocol: as §1, §2, §3
Raw images in 16-bit grayscale TIFF format were analyzed using ImageJ API/library (http://rsb.info.nih.gov/ij/, NIH, MD). First, images from the fluorescence channels (Hoechst and Alexa 488) were normalized using the ImageJ built-in rolling-ball algorithm [S. R. Sternberg, Biomedical image processing. Computer, 16(1), January 1983]. Next a threshold was established to separate the foreground from background. An iterative algorithm based on Particle Analyzer from ImageJ is applied to the thresholded Hoechst channel image (HI) to obtain the total cell count. The nuclear region of a cell (nuclear mask) is also derived from the thresholded HI. […]

phospho-CREB = phospho-CREB (S133) immunofluorescence high-content assay; settings: HEK293T cells; for phosphorylation of CREB (phospho-CREB intensity), agent alone / subcellular distribution of phospho-CREB: isoproterenol 2 micromolar or forskolin 1 micromolar 15 min, anisomycin 10 micrograms/ml 10 min, relative to untreated control; for phosphorylation of CREB (phospho-CREB intensity), agent alone: hEGF 100 ng/ml 5 min
Protocol: as §1, §2, §3, §4

Row | ERK/MAP kinase phosphorylation, agent alone (phospho-ERK) | Compound | effect on EGF-stimulated ERK phosphorylation (phospho-ERK) | effect on EGF-induced Hsp27 phosphorylation (phospho-Hsp27) | effect on EGF-induced phospho-CREB (phospho-CREB; drug 90 min (PD98059 20 micromolar), 100 ng/ml hEGF during last 5 min) | effect on anisomycin-induced phospho-Hsp27 (phospho-Hsp27; SB203580 25 micromolar 90 min, 10 micrograms/ml anisomycin during last 10 min) | Hsp27 phosphorylation (p38 pathway), agent alone (phospho-Hsp27) | phosphorylation of CREB (phospho-CREB intensity), agent alone (phospho-CREB) | subcellular distribution of phospho-CREB (phospho-CREB)
1 |  | C=CCNC1=C2C[C@@H](C)C[C@H](OC)[C@H](O)[C@@H](C)/C=C(\C)[C@H](OC(N)=O)[C@@H](OC)/C=C\C=C(/C)C(=O)NC(=CC1=O)C2=O [17-AAG, 17-allylamino-17-demethoxygeldanamycin] | effective at reducing |  |  |  |  |  | 
2 |  | COc1cccc(-c2cc(=O)c3ccccc3o2)c1N [PD98059] | significantly blocked | no effect | reduced |  |  |  | 
3 |  | C[S+]([O-])c1ccc(-c2nc(-c3ccc(F)cc3)c(-c3ccncc3)[nH]2)cc1 (centres unmarked) [SB203580, 4-(4-fluorophenyl)-2-(4-methylsulfinylphenyl)-5-(4-pyridyl)1H-imidazole] | no effect | blocked |  | completely blocked |  |  | 
4 | no effects | CC(C)NCC(O)c1ccc(O)c(O)c1 (centres unmarked) [isoproterenol] |  |  |  |  |  | increased | predominantly nuclear pattern
5 | strongly stimulated | EGF: epidermal growth factor; hEGF from Roche, used as pathway stimulus |  |  |  |  | elicited p38 pathway activation | induced | 

Row | Compound | ERK/MAP kinase phosphorylation, agent alone (phospho-ERK) | effect on EGF-stimulated ERK phosphorylation (phospho-ERK) | effect on EGF-induced Hsp27 phosphorylation (phospho-Hsp27) | effect on EGF-induced phospho-CREB (phospho-CREB; drug 90 min (PD98059 20 micromolar), 100 ng/ml hEGF during last 5 min) | effect on anisomycin-induced phospho-Hsp27 (phospho-Hsp27; SB203580 25 micromolar 90 min, 10 micrograms/ml anisomycin during last 10 min) | Hsp27 phosphorylation (p38 pathway), agent alone (phospho-Hsp27) | phosphorylation of CREB (phospho-CREB intensity), agent alone (phospho-CREB) | subcellular distribution of phospho-CREB (phospho-CREB)
6 | COc1ccc(C[C@H]2NC[C@H](O)[C@H]2OC(C)=O)cc1 [anisomycin] | no effect |  |  |  |  | induced | little or no effect; also recorded: no effect | little or no effect
